Assay results from PubChem BioAssay (NCI).
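Grown in 96-well plates, cells were treated for 48 hours with each compound at five concentrations. Insufficient inhibition: endpoint recorded as highest concentration tested. At the GI50, growth is halved. The concentration for full growth arrest is given as TGI.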

Assays:
Experiment in all cases: inhibition of tumour cell growth, NCI panel, 48 h
CCRF-CEM leukemia = system: CCRF-CEM leukemia
OVCAR-3 ovarian = system: OVCAR-3 ovarian
UACC-62 melanoma = system: UACC-62 melanoma
NCI-H460 lung = system: NCI-H460 lung
HCC-2998 colon = system: HCC-2998 colon
SW-620 colon = system: SW-620 colon
HS 578T breast = system: HS 578T breast
PC-3 prostate = system: PC-3 prostate
HL-60(TB) leukemia = system: HL-60(TB) leukemia
SF-295 CNS = system: SF-295 CNS
OVCAR-5 ovarian = system: OVCAR-5 ovarian
HOP-92 NSCLC = system: HOP-92 NSCLC
T-47D breast = system: T-47D breast
NCI-H522 lung = system: NCI-H522 lung
SK-MEL-5 melanoma = system: SK-MEL-5 melanoma
SNB-75 CNS = system: SNB-75 CNS
LOX IMVI melanoma = system: LOX IMVI melanoma
BT-549 breast = system: BT-549 breast
HCT-116 colon = system: HCT-116 colon
TK-10 renal = system: TK-10 renal
HOP-62 NSCLC = system: HOP-62 NSCLC
MALME-3M melanoma = system: MALME-3M melanoma
SK-OV-3 ovarian = system: SK-OV-3 ovarian
MDA-MB-231 breast = system: MDA-MB-231 breast
UACC-257 melanoma = system: UACC-257 melanoma
OVCAR-4 ovarian = system: OVCAR-4 ovarian
SN12C renal = system: SN12C renal
MDA-MB-435 = system: MDA-MB-435
RPMI-8226 leukemia = system: RPMI-8226 leukemia
EKVX NSCLC = system: EKVX NSCLC
NCI/ADR-RES ovarian = system: NCI/ADR-RES ovarian
SF-268 CNS = system: SF-268 CNS
MCF7 breast = system: MCF7 breast
HT29 colon = system: HT29 colon
OVCAR-8 ovarian = system: OVCAR-8 ovarian
KM12 colon = system: KM12 colon
IGROV1 ovarian = system: IGROV1 ovarian
A498 renal = system: A498 renal
SK-MEL-28 melanoma = system: SK-MEL-28 melanoma
DU-145 prostate = system: DU-145 prostate
ACHN renal = system: ACHN renal
MOLT-4 leukemia = system: MOLT-4 leukemia
M14 melanoma = system: M14 melanoma
CAKI-1 renal = system: CAKI-1 renal
COLO 205 colon = system: COLO 205 colon
SF-539 CNS = system: SF-539 CNS
NCI-H226 lung = system: NCI-H226 lung
NCI-H23 lung = system: NCI-H23 lung
UO-31 renal = system: UO-31 renal
U251 CNS = system: U251 CNS
A549 NSCLC = system: A549 NSCLC
SK-MEL-2 melanoma = system: SK-MEL-2 melanoma
HCT-15 colon = system: HCT-15 colon
786-0 renal = system: 786-0 renal
SNB-19 CNS = system: SNB-19 CNS
RXF 393 renal = system: RXF 393 renal

**Q.** For `Cc1ncc(C(=O)Nc2ccc(CN3CCN(C)CC3)c(C(F)(F)F)c2)cc1C#Cc1c(N)ncc2ccc(F)cc12`, which GI50 (CCRF-CEM leukemia) is on record?
**A.** 0.809 µM

**Q.** What about the TGI (CCRF-CEM leukemia) of the same compound?
**A.** 2.14 µM

**Q.** What about the GI50 (OVCAR-3 ovarian) of the same compound?
**A.** 0.789 µM

**Q.** And the TGI (OVCAR-3 ovarian)?
**A.** 1.54 µM

**Q.** And the GI50 (UACC-62 melanoma)?
**A.** 0.282 µM

**Q.** What about the TGI (UACC-62 melanoma) of the same compound?
**A.** 2.84 µM

**Q.** What about the GI50 (NCI-H460 lung) of the same compound?
**A.** 0.643 µM

**Q.** What about the TGI (NCI-H460 lung) of the same compound?
**A.** 1.47 µM

**Q.** And the GI50 (HCC-2998 colon)?
**A.** 1.01 µM

**Q.** And the TGI (HCC-2998 colon)?
**A.** 7.81 µM

**Q.** And the GI50 (SW-620 colon)?
**A.** 0.274 µM

**Q.** And the TGI (SW-620 colon)?
**A.** 1.07 µM

**Q.** What about the GI50 (HS 578T breast) of the same compound?
**A.** 0.588 µM

**Q.** And the TGI (HS 578T breast)?
**A.** 2.74 µM

**Q.** What about the GI50 (PC-3 prostate) of the same compound?
**A.** 0.87 µM

**Q.** And the TGI (PC-3 prostate)?
**A.** 3.14 µM

**Q.** What about the GI50 (HL-60(TB) leukemia) of the same compound?
**A.** 0.319 µM

**Q.** What about the TGI (HL-60(TB) leukemia) of the same compound?
**A.** 2.06 µM

**Q.** And the GI50 (SF-295 CNS)?
**A.** 3.45 µM

**Q.** What about the TGI (SF-295 CNS) of the same compound?
**A.** 11.3 µM

**Q.** What about the GI50 (OVCAR-5 ovarian) of the same compound?
**A.** 0.669 µM

**Q.** What about the TGI (OVCAR-5 ovarian) of the same compound?
**A.** 3.03 µM

**Q.** And the GI50 (HOP-92 NSCLC)?
**A.** 0.0489 µM

**Q.** What about the TGI (HOP-92 NSCLC) of the same compound?
**A.** 0.468 µM

**Q.** And the GI50 (T-47D breast)?
**A.** 4.1 µM

**Q.** What about the TGI (T-47D breast) of the same compound?
**A.** 16.3 µM

**Q.** And the GI50 (NCI-H522 lung)?
**A.** 0.668 µM

**Q.** And the TGI (NCI-H522 lung)?
**A.** 1.83 µM

**Q.** And the GI50 (SK-MEL-5 melanoma)?
**A.** 0.678 µM

**Q.** What about the TGI (SK-MEL-5 melanoma) of the same compound?
**A.** 1.53 µM

**Q.** And the GI50 (SNB-75 CNS)?
**A.** 0.774 µM

**Q.** And the TGI (SNB-75 CNS)?
**A.** 2.27 µM

**Q.** What about the GI50 (LOX IMVI melanoma) of the same compound?
**A.** 0.184 µM

**Q.** What about the TGI (LOX IMVI melanoma) of the same compound?
**A.** 0.841 µM

**Q.** And the GI50 (BT-549 breast)?
**A.** 1.49 µM

**Q.** What about the TGI (BT-549 breast) of the same compound?
**A.** 4.12 µM

**Q.** What about the GI50 (HCT-116 colon) of the same compound?
**A.** 0.176 µM

**Q.** What about the TGI (HCT-116 colon) of the same compound?
**A.** 0.873 µM

**Q.** And the GI50 (TK-10 renal)?
**A.** 0.715 µM

**Q.** And the TGI (TK-10 renal)?
**A.** 1.52 µM

**Q.** And the GI50 (HOP-62 NSCLC)?
**A.** 1.18 µM

**Q.** And the TGI (HOP-62 NSCLC)?
**A.** 8.18 µM

**Q.** What about the GI50 (MALME-3M melanoma) of the same compound?
**A.** 0.105 µM

**Q.** What about the TGI (MALME-3M melanoma) of the same compound?
**A.** 0.601 µM

**Q.** What about the GI50 (SK-OV-3 ovarian) of the same compound?
**A.** 4.79 µM

**Q.** What about the TGI (SK-OV-3 ovarian) of the same compound?
**A.** 12 µM

**Q.** What about the GI50 (MDA-MB-231 breast) of the same compound?
**A.** 0.129 µM

**Q.** What about the TGI (MDA-MB-231 breast) of the same compound?
**A.** 0.743 µM

**Q.** And the GI50 (UACC-257 melanoma)?
**A.** 0.649 µM

**Q.** And the TGI (UACC-257 melanoma)?
**A.** 3.22 µM

**Q.** And the GI50 (OVCAR-4 ovarian)?
**A.** 2.6 µM

**Q.** What about the TGI (OVCAR-4 ovarian) of the same compound?
**A.** 10.8 µM

**Q.** What about the GI50 (SN12C renal) of the same compound?
**A.** 0.422 µM

**Q.** What about the TGI (SN12C renal) of the same compound?
**A.** 3.05 µM

**Q.** What about the GI50 (MDA-MB-435) of the same compound?
**A.** 0.17 µM

**Q.** And the TGI (MDA-MB-435)?
**A.** 1.04 µM

**Q.** And the GI50 (RPMI-8226 leukemia)?
**A.** 0.673 µM

**Q.** What about the TGI (RPMI-8226 leukemia) of the same compound?
**A.** 2.17 µM

**Q.** What about the GI50 (EKVX NSCLC) of the same compound?
**A.** 1.54 µM

**Q.** What about the TGI (EKVX NSCLC) of the same compound?
**A.** 9.37 µM

**Q.** And the GI50 (NCI/ADR-RES ovarian)?
**A.** 1.26 µM

**Q.** And the TGI (NCI/ADR-RES ovarian)?
**A.** 4.25 µM

**Q.** And the GI50 (SF-268 CNS)?
**A.** 0.717 µM

**Q.** And the TGI (SF-268 CNS)?
**A.** 2.5 µM

**Q.** What about the GI50 (MCF7 breast) of the same compound?
**A.** 0.503 µM

**Q.** What about the TGI (MCF7 breast) of the same compound?
**A.** 1.33 µM

**Q.** What about the GI50 (HT29 colon) of the same compound?
**A.** 0.0689 µM

**Q.** And the TGI (HT29 colon)?
**A.** 0.651 µM

**Q.** What about the GI50 (OVCAR-8 ovarian) of the same compound?
**A.** 0.931 µM

**Q.** What about the TGI (OVCAR-8 ovarian) of the same compound?
**A.** 2.41 µM

**Q.** And the GI50 (KM12 colon)?
**A.** 0.005 µM

**Q.** What about the TGI (KM12 colon) of the same compound?
**A.** 0.646 µM

**Q.** And the GI50 (IGROV1 ovarian)?
**A.** 0.301 µM

**Q.** What about the TGI (IGROV1 ovarian) of the same compound?
**A.** 6.27 µM

**Q.** And the GI50 (A498 renal)?
**A.** 0.93 µM

**Q.** And the TGI (A498 renal)?
**A.** 1.74 µM

**Q.** What about the GI50 (SK-MEL-28 melanoma) of the same compound?
**A.** 0.415 µM

**Q.** And the TGI (SK-MEL-28 melanoma)?
**A.** 1.23 µM

**Q.** And the GI50 (DU-145 prostate)?
**A.** 0.692 µM

**Q.** And the TGI (DU-145 prostate)?
**A.** 1.39 µM

**Q.** What about the GI50 (ACHN renal) of the same compound?
**A.** 0.374 µM

**Q.** What about the TGI (ACHN renal) of the same compound?
**A.** 3.23 µM

**Q.** What about the GI50 (MOLT-4 leukemia) of the same compound?
**A.** 0.579 µM

**Q.** And the TGI (MOLT-4 leukemia)?
**A.** 1.74 µM

**Q.** What about the GI50 (M14 melanoma) of the same compound?
**A.** 0.128 µM

**Q.** What about the TGI (M14 melanoma) of the same compound?
**A.** 0.69 µM

**Q.** And the GI50 (CAKI-1 renal)?
**A.** 1.05 µM

**Q.** And the TGI (CAKI-1 renal)?
**A.** 6.16 µM

**Q.** And the GI50 (COLO 205 colon)?
**A.** 0.197 µM

**Q.** And the TGI (COLO 205 colon)?
**A.** 1.23 µM

**Q.** What about the GI50 (SF-539 CNS) of the same compound?
**A.** 0.624 µM

**Q.** What about the TGI (SF-539 CNS) of the same compound?
**A.** 1.3 µM

**Q.** What about the GI50 (NCI-H226 lung) of the same compound?
**A.** 0.624 µM

**Q.** What about the TGI (NCI-H226 lung) of the same compound?
**A.** 3.65 µM

**Q.** What about the GI50 (NCI-H23 lung) of the same compound?
**A.** 0.596 µM

**Q.** And the TGI (NCI-H23 lung)?
**A.** 1.37 µM

**Q.** What about the GI50 (UO-31 renal) of the same compound?
**A.** 0.602 µM

**Q.** And the TGI (UO-31 renal)?
**A.** 2.8 µM

**Q.** And the GI50 (U251 CNS)?
**A.** 0.826 µM

**Q.** What about the TGI (U251 CNS) of the same compound?
**A.** 1.58 µM

**Q.** What about the GI50 (A549 NSCLC) of the same compound?
**A.** 0.631 µM

**Q.** And the TGI (A549 NSCLC)?
**A.** 1.44 µM

**Q.** And the GI50 (SK-MEL-2 melanoma)?
**A.** 1.05 µM

**Q.** And the TGI (SK-MEL-2 melanoma)?
**A.** 5.77 µM

**Q.** What about the GI50 (HCT-15 colon) of the same compound?
**A.** 0.559 µM

**Q.** And the TGI (HCT-15 colon)?
**A.** 3.15 µM

**Q.** What about the GI50 (786-0 renal) of the same compound?
**A.** 0.756 µM

**Q.** What about the TGI (786-0 renal) of the same compound?
**A.** 1.56 µM

**Q.** What about the GI50 (SNB-19 CNS) of the same compound?
**A.** 0.787 µM

**Q.** What about the TGI (SNB-19 CNS) of the same compound?
**A.** 1.49 µM

**Q.** And the GI50 (RXF 393 renal)?
**A.** 0.608 µM

**Q.** And the TGI (RXF 393 renal)?
**A.** 1.29 µM
